Tested on: BMDMs
Test: Central carbon analysis of IL-4 treated BMDMs
Type: cell-based, mouse
Settings: 40 ng/ml IL-4 for 4 h
Method: BMDMs from lipin-1^mKO and littermate control mice were seeded at a density of 1×10^6/ml into Falcon tubes (60818-500; VWR). Cells were either treated with or without IL-4 (40 ng/ml) for 4 h. Cells were then collected and spun at 400×g for 5 min. Cell pellets were sent to Creative Proteomics (Shirley, N.Y.) for central carbon analysis.
Macrophages need to align individual metabolic pathways to effectively respond to stimuli. The inventors wanted to understand the consequences of lipin-1 activity on immunometabolic responses in macrophages after stimulation with IL-4. WT and lipin-1 KO macrophages were stimulated with and without 40 ng/ml IL-4 for 4 h. Cell pellets were then sent to Creative Proteomics for central carbon analysis to determine the abundance of metabolites in major metabolic pathways, such as glycolysis, TCA cycle, and PPP. At baseline, lipin-1-deficient macrophages have an altered metabolism compared with WT macrophages. Lipin-1 KO BMDMs have multiple elevated glycolytic metabolites compared with WT BMDMs (FIGS. 10 and 43). […] The inventors also see an increase in metabolites within the PPP (FIG. 10). Upregulation of the PPP can result in increased NADPH (FIG. 10).
The alterations in metabolism in lipin-1-deficient BMDMs at baseline were exacerbated upon stimulation with IL-4. […] The TCA cycle generates electron carriers (NADH) that are used by the electron transport chain to generate ATP as part of oxidative phosphorylation. […] Lipin-1-deficient macrophages have an increase in the initial metabolites of the PPP, 6P-gluconate. The conversion of glucose-6P to 6P-gluconate generates NADPH, which can be used in lipid synthetic pathways (FIG. 10). […] Complete central carbon analysis can be found is found below: […]

## IL-4: cytokine IL-4 (R&D Biosystems, 404-ML-050) used to stimulate macrophages; optional component of the claimed composition
KO (lipin-1mKO) BMDMs
  6P-Gluconate, Mean: 0.02073
  ADP, Mean: 0.6171
  ADP-Glucose, Mean: 0.0026
  AMP, Mean: 2.121
  ATP, Mean: 0.24
  Acetyl-CoA, Mean: 0.00588
  Acetyl-Phosphate, Mean: 0.4686
  Acetylglucosamine-1P, Mean: 0.1085
  Acetylglucosamine-6P, Mean: 0.4128
  Citrate, Mean: 17.69
  DHAP, Mean: 0.05052
  Erythrose-4P, Mean: 0.03703
  Fructose-1,6-bisP, Mean: 0.02422
  Fructose-1P, Mean: 0.00893
  Fructose-6P, Mean: 0.05762
  Fumarate, Mean: 15.48
  GDP, Mean: 0.1098
  GMP, Mean: 14.33
  GTP, Mean: 0.0303
  Glucosamine-6P, Mean: 0.03932
  Glucose, Mean: 70.05
  Glucose-1,6-bisP, Mean: 0.04135
  Glucose-1P, Mean: 0.03615
  Glucose-6P, Mean: 0.09843
  Glyceraldehyde-3P, Mean: 0.1128
  Glycerate-2,3P, Mean: 0.00052
  Glycerate-2P, Mean: 0.00902
  Glycerate-3P, Mean: 0.07625
  Glycerol-3P, Mean: 0.8631
  Glycolate, Mean: 20.92
  Hs-CoA, Mean: 0.0443
  Isocitrate, Mean: 0.2094
  Latate, Mean: 1872
  Malate, Mean: 73.43
  Mannose-6P, Mean: 0.01255
  NAD+, Mean: 0.3551
  NADH, Mean: 0.3515
  NADP+, Mean: 0.1139
  NADPH, Mean: 0.1752
  PEP, Mean: 0.04492
  Phosphocreatine, Mean: 0.2338
  Pyruvate, Mean: 35.61
  Ribose-1,5bisP, Mean: 0.00195
  Ribose-5P, Mean: 0.07803
  Ribulose-1,5bisP, Mean: 0.02412
  Ribulose-5P, Mean: 0.1828
  Sedoheptulose-7P, Mean: 0.05303
  Succinate, Mean: 36.15
  Succinyl-CoA, Mean: 0.0234
  UDP, Mean: 0.1803
  UDP-Glucose, Mean: 0.5266
  UDP-acetylglucosamine, Mean: 0.9395
  UMP, Mean: 16.84
  UTP, Mean: 4.409
  cyclic-ADPR, Mean: 0.3267
  cyclic-AMP, Mean: 0.0031
  cyclic-UMP, Mean: 0.00447
  α-Ketoglutarate, Mean: 3.985
WT BMDMs
  6P-Gluconate, Mean: 0.01622
  ADP, Mean: 0.8758
  ADP-Glucose, Mean: 0.00298
  AMP, Mean: 2.316
  ATP, Mean: 0.2736
  Acetyl-CoA, Mean: 0.00738
  Acetyl-Phosphate, Mean: 0.496
  Acetylglucosamine-1P, Mean: 0.1361
  Acetylglucosamine-6P, Mean: 0.5132
  Citrate, Mean: 15.89
  DHAP, Mean: 0.05342
  Erythrose-4P, Mean: 0.05778
  Fructose-1,6-bisP, Mean: 0.0196
  Fructose-1P, Mean: 0.00392
  Fructose-6P, Mean: 0.06408
  Fumarate, Mean: 19.48
  GDP, Mean: 0.1479
  GMP, Mean: 15.29
  GTP, Mean: 0.04348
  Glucosamine-6P, Mean: 0.04035
  Glucose, Mean: 53.46
  Glucose-1,6-bisP, Mean: 0.04287
  Glucose-1P, Mean: 0.03848
  Glucose-6P, Mean: 0.1044
  Glyceraldehyde-3P, Mean: 0.1365
  Glycerate-2,3P, Mean: 0.00063
  Glycerate-2P, Mean: 0.00803
  Glycerate-3P, Mean: 0.0653
  Glycerol-3P, Mean: 0.982
  Glycolate, Mean: 19.94
  Hs-CoA, Mean: 0.0517
  Isocitrate, Mean: 0.1146
  Latate, Mean: 2685
  Malate, Mean: 87.07
  Mannose-6P, Mean: 0.01458
  NAD+, Mean: 0.3884
  NADH, Mean: 0.5159
  NADP+, Mean: 0.1431
  NADPH, Mean: 0.1122
  PEP, Mean: 0.03792
  Phosphocreatine, Mean: 0.2747
  Pyruvate, Mean: 37.78
  Ribose-1,5bisP, Mean: 0.00238
  Ribose-5P, Mean: 0.08472
  Ribulose-1,5bisP, Mean: 0.02488
  Ribulose-5P, Mean: 0.2631
  Sedoheptulose-7P, Mean: 0.04902
  Succinate, Mean: 52.07
  Succinyl-CoA, Mean: 0.02933
  UDP, Mean: 0.2351
  UDP-Glucose, Mean: 0.5467
  UDP-acetylglucosamine, Mean: 1.096
  UMP, Mean: 18
  UTP, Mean: 5.48
  cyclic-ADPR, Mean: 0.3519
  cyclic-AMP, Mean: 0.00362
  cyclic-UMP, Mean: 0.00372
  glycolytic and TCA cycle metabolites on IL-4 stimulation: significant increase
  α-Ketoglutarate, Mean: 3.785
lipin-1 KO macrophages
  TCA metabolite succinate on IL-4 stimulation: decrease
  isocitrate on IL-4 stimulation: significant increase

Source: patent US20220233743A1, “WOUND CLOSURE ENHANCEMENT METHODS AND MATERIALS VIA MANIPULATION OR AUGMENTATION OF LIPIN-1” (Board of Supervisors of Louisiana State University and …, priority 2019, published 2022)
